Data published in patent US20250205240A1, “COMBINATIONS” (Recurium IP Holdings, LLC, priority 2022, published 2025).

Columns and labels:
HT-29 cell line = assay: In vitro tumor cell proliferation assay (3D spheroid, 3D CTG), HT-29; assay type: cell-based; settings: Homo sapiens
Description: (§1) Cell suspensions containing 1.5×10^3 total cells in 100 μL culture media were deposited in each well of an ultra-low attachment 96 well plate. Plates were incubated at 37° C. with […] and 5% CO2 for 72 h to allow for spheroid formation. […] ZN-c3 and/or Encorafenib compounds in DMSO were deposited into the plates using an automated drug dispenser at the indicated concentrations. Total DMSO content was normalized to 0.1% of the total volume in all assay conditions. Plates were sealed with breathable film to reduce evaporation and incubated at 37° C. with […] and 5% CO2 for 192 h. After 192 h, plates were removed from the incubator and allowed to come to room temperature. 100 μL room temperature 3D CTG reagent (Promega, Cat #G9683) was added to each well. Plates were agitated at 520 revolutions per minute (rpm) for 5 mins, allowed to stabilize protected from light for 30 mins, then luminescence was measured on an M5e plate reader (SpectraMax). Percent viability was calculated as percentage of cell viability relative to DMSO-only vehicle control.

LS411N cell line = assay: In vitro tumor cell proliferation assay (3D spheroid, 3D CTG), LS411N; assay type: cell-based; settings: Homo sapiens, LS-411N, 192 h
Description: as §1

[1] = test system: HT-29 CDX model (BRAFmt CRC); assay type: in vivo, BALB/c nude mice; settings: ZN-c3 60 mg/kg QD p.o., encorafenib 15 mg/kg QD p.o., cetuximab 15 mg/kg BIW i.p.; for TGI: 21- or 22-day study
Description: (§2) CDX Models: 6-8 week old BALB/c nude mice were inoculated subcutaneously on the right flank with the single cell suspension of 95% viable tumor cells (5×10^6) in 100 μL RPMI 1640 without serum (COLO205), 95% viable tumor cells (2×10^6) in 100 μL McCoy's 5a Medium Modified without serum (HT-29), or 95% viable tumor cells (2×106) in 100 μL RPMI 1640 and Matrigel mixture (1:1 ratio) without serum (LS411N).
(§3) Grouping and treatments started when the mean tumor volume reached about 220 mm^3 (with individual tumors in the range of 200-240 mm^3). Vehicle animals were treated daily with 10 mL/kg HP-β-CD p.o. (oral gavage). Encorafenib was prepared weekly in 0.5% carboxymethyl cellulose: 0.5% Tween 80:99% deionized water and dosed daily (QD) at the indicated doses orally (p.o.) (see Tables 4 and 5 for dosage amounts). ZN-c3 was prepared daily in 20% HP-B-CD and dosed daily at the indicated doses p.o. (see Tables 4 and 5 for dosage amounts). […] Body weight and tumor volume of all animals was measured twice weekly throughout the studies that were 21 or 22 days or 3 weeks in duration (for CDX models HT-29 and LS411N) or that were 28 days or 4 weeks in duration (for PDX models CRC769, CRC563 and CTG-1009). The measurement of tumor size was performed with a caliper and the tumor volume (mm3) was estimated using the formula: TV=a×b2/2 throughout the study, where “a” and “b” is long and short diameters of a tumor, respectively. Animals were euthanized when their individual tumor burden exceeded 2000 mm^3 or is in a continuing deteriorating condition or close to a comatose state.

[2] = test system: LS411N CDX model (BRAFmt CRC); assay type: in vivo, BALB/c nude mice; settings: ZN-c3 60 mg/kg QD p.o., encorafenib 20 mg/kg QD p.o., cetuximab 15 mg/kg BIW i.p.; for TGI: 21- or 22-day study
Description: as §2, §3

[3] = test system: CTG-1009 PDX model (BRAFmt CRC); assay type: in vivo, female athymic nude Foxn1nu mice; settings: ZN-c3 60 mg/kg QD p.o., encorafenib 20 mg/kg QD p.o., cetuximab 15 mg/kg BIW i.p., 28-day study
Description: (§4) PDX Models: Tumor fragments (CRC769, CRC563, CTG-1009) were brought out of cryopreservation and implanted into female athymic nude Foxn1nu mice. Fragments were allowed to grow then excised once an appropriate volume was reached. A tumor slurry was made of 50% freshly harvested tumors minced to small tumor fragments in PBS and 50% Matrigel. The tumor slurry was injected subcutaneously into 6-8 week old female athymic nude Foxn1nu mice on the flank.
as §3

[4] = test system: CRC769 PDX model (BRAFmt CRC); assay type: in vivo, female athymic nude Foxn1nu mice; settings: ZN-c3 60 mg/kg QD p.o., encorafenib 20 mg/kg QD p.o., cetuximab 20 mg/kg BIW i.p., 28-day study
Description: as §4, §3

[5] = test system: CRC563 PDX model (BRAFmt CRC); assay type: in vivo, female athymic nude Foxn1nu mice; settings: ZN-c3 60 mg/kg QD p.o., encorafenib 20 mg/kg QD p.o., cetuximab 20 mg/kg BIW i.p., 28-day study
Description: as §4, §3

WEE1 = WEE1 (Homo sapiens, UniProt P30291); settings: as provided in WO 2019/173082; cited from earlier work
Chain of WEE1 (P30291 whole entry, species assumed): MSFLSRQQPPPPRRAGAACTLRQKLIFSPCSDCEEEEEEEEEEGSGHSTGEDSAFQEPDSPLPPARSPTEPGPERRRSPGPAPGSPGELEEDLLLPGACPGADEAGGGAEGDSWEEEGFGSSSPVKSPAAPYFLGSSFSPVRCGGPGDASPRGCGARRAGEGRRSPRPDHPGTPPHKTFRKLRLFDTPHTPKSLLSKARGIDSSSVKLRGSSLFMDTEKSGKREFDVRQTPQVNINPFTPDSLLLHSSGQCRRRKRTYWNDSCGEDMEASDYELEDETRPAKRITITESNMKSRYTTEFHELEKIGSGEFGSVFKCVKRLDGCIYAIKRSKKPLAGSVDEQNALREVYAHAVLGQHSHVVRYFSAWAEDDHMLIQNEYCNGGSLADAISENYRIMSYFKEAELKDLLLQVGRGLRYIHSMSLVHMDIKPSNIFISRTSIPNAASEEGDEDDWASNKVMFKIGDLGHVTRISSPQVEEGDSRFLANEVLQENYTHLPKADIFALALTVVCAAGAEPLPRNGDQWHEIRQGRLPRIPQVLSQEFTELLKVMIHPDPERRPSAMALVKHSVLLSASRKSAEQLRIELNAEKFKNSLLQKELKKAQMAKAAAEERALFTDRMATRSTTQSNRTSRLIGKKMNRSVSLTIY

[6] = HT-29 spheroids, 192 h, 250 nM ZN-c3, 1.6 nM encorafenib, relative to 0.1% DMSO
[7] = LS411N spheroids, 250 nM ZN-c3, 25 nM encorafenib, relative to 0.1% DMSO

Row | Structure (SMILES) | inhibition at 0.01 µM (HT-29 cell line; HT-29, 192 h) | inhibition at 0.0016 µM (HT-29 cell line; [6]) | inhibition at 0.025 µM (LS411N cell line; [7]) | Tumor Vol. Change from D 14-D 21 (%) [1] | TGI [1] | Tumor Vol. Change from D 14-D 21 (%) [2] | TGI [2] | TGI [3] | TGI [4] | inhibition at 0.3 µM (HT-29 cell line; HT-29, 192 h) | inhibition at 0.25 µM (HT-29 cell line; [6]) | inhibition at 0.35 µM (LS411N cell line) | inhibition at 0.25 µM (LS411N cell line; [7]) | TGI [5] | activity against WEE1 (WEE1)
1 | COC(=O)N[C@@H](C)CNc1nccc(-c2cn(C(C)C)nc2-c2cc(Cl)cc(NS(C)(=O)=O)c2F)n1 [Encorafenib, encorafenib, reference compound] | 75.8% | 39.5% | 28.3% | 36.9% | 42.6 | 36.6% | 64.6 | 80.0 | 69.0 | – | – | – | – | – | –
2 | C=CCn1c(=O)c2cnc(Nc3ccc(N4CCN(C)CC4)cc3)nc2n1-c1ccc2c(n1)[C@@](O)(CC)CC2 [ZN-c3, (R)-2-allyl-1-(7-ethyl-7-hydroxy-6,7-dihydro-5H-cyclopenta[b]pyridin-2-yl)-6-((4-(4-methylpiperazin-1-yl)phenyl)amino)-1,2-dihydro-3H-pyrazolo[3,4-d]pyrimidin-3-one] | – | – | – | 36.3% | 15.0 | 35.8% | 69.0 | 51.2 | 19.0 | 34.5% | 39% | 21.6% | 27.5% | 43.4 | active against WEE1
